Experimental data: patent US6488909B1, “Chelating agents as well as their tricarbonyl complexes with technetium and rhenium” (Schering Aktiengesellschaft, priority 1998, dated 2002)

Tests used:
[1] = Stability study: histidine challenge, radiochemical composition by HPLC on RP18 column; format: physicochemical; details: stirred 1 hour at 50° C.
Method: (§1) The complexes are stable, so that at room temperature, no exchange of chelating agents for histidine is carried out. The. chelates and tricarbonyl-Tc-99m and Re-tricarbonyl complexes that are described in this invention are thus clearly better suited for diagnostic and therapeutic purposes than the previously known systems. A special advantage of the compounds according to the invention consists in the fact that their syntheses can be directed without using sulfur protective groups. This makes their synthesis very simple, and in addition, such compounds that are described according to the invention in particular offer the advantage that after radiochemical labeling, no further foreign molecules are contained in the solutions that are to be administered intravenously for radiodiagnosis or radiotherapy. Such foreign molecules frequently disrupt the biodistribution of the radiopharmaceutical agent and can adversely affect the diagnostic information content of the SPECT imaging. In addition, the labelings on such ligands or their coupling products can be performed on substances that accumulate selectively on diseased tissues under very mild conditions. […]

[2] = Incubation of the Tc-99m-tricarbonyl complex in serum; format: in vitro ADME; details: 26 hours of incubation in serum
Method: as §1

Which “radiochemical composition (HPLC chromatogram) after histidine challenge” value ([1]; 20 mg of histidine) does the source give for “Tc-99m-Tricarbonyl Complex of {2-(1H-pyrazol1-yl)-ethylimino}-diacetic Acid-monopropylamide [Example 7b]” here?
Its value is “unchanged”.

Which “decomposition products after incubation in serum” value [2] does the source give for “Tc-99m-Tricarbonyl complex of N-(hydroxycarboxy-methyl)-N-(N′-propyl-carbamido-methyl)-S-ethyl-2-mercaptoethylamine [Example 2b]” here?
Its value is “no decomposition products”.

And the “radiochemical composition (HPLC chromatogram) after histidine challenge” value ([1]; 10 mg of histidine)?
Its value is “unchanged”.
